Experimental data as given in patent US5972975A, “Substituted 2-aminopyridines as inhibitors of nitric oxide synthase” (priority 1997, dated 1999).
Where a name gives a salt, the structure may show the parent alone. Read-outs that look alike come from different tables or passages of the source.

Assays:
iNOS = iNOS (Homo sapiens, UniProt P35228); assay: NOS activity: L-[3H]citrulline formation from L-[3H]arginine, iNOS; type: biochemical; conditions: iNOS, 1 μM L-Arg, pH 7.5, room temperature, 30 minutes, read-out: iNOS (IC50)
Description: (§1) NOS activity is measured as the formation of L-[2,3,4,5-^3 H]Citrullinefrom L-[2,3,4,5-^3 H]Arginine. The incubation buffer (100 μL) contained; 100 mM TES, pH 7.5, 5 μM FAD, 5 μM FMN, 10 μM BH4, 0.5 mM NADPH, 0.5 mM DTT, 0.5 mg/mL BSA, 2 mM CaCl2, 10 μg/mL calmodulin (bovine), 1 μM L-Arg, 0.2 μCi L-[2,3,4,5-^3 H]Arg, and the inhibitor in aqueous DMSO (max. 5%). The reaction is initiated by addition of enzyme. Incubations are performed at room temperature for 30 minutes and stopped by the addition of an equal volume of quenching buffer consisting of 200 mM sodium citrate, pH 2.2, 0.02% sodium azide. Reaction products are separated by passing through a cation exchange resin and quantitated as cpm by scintillation counting.

ecNOS = ecNOS (Homo sapiens, UniProt P29474); assay: NOS activity: L-[3H]citrulline formation from L-[3H]arginine, ecNOS; type: biochemical; conditions: ecNOS, 1 μM L-Arg, pH 7.5, room temperature, 30 minutes, read-out: ecNOS (IC50)
Description: as §1

ncNOS = ncNOS (Homo sapiens, UniProt P29475); assay: biochemical; conditions: ncNOS, 1 μM L-Arg, pH 7.5, room temperature, 30 minutes, read-out: ncNOS (IC50)
Sequence of ncNOS (P29475 whole entry): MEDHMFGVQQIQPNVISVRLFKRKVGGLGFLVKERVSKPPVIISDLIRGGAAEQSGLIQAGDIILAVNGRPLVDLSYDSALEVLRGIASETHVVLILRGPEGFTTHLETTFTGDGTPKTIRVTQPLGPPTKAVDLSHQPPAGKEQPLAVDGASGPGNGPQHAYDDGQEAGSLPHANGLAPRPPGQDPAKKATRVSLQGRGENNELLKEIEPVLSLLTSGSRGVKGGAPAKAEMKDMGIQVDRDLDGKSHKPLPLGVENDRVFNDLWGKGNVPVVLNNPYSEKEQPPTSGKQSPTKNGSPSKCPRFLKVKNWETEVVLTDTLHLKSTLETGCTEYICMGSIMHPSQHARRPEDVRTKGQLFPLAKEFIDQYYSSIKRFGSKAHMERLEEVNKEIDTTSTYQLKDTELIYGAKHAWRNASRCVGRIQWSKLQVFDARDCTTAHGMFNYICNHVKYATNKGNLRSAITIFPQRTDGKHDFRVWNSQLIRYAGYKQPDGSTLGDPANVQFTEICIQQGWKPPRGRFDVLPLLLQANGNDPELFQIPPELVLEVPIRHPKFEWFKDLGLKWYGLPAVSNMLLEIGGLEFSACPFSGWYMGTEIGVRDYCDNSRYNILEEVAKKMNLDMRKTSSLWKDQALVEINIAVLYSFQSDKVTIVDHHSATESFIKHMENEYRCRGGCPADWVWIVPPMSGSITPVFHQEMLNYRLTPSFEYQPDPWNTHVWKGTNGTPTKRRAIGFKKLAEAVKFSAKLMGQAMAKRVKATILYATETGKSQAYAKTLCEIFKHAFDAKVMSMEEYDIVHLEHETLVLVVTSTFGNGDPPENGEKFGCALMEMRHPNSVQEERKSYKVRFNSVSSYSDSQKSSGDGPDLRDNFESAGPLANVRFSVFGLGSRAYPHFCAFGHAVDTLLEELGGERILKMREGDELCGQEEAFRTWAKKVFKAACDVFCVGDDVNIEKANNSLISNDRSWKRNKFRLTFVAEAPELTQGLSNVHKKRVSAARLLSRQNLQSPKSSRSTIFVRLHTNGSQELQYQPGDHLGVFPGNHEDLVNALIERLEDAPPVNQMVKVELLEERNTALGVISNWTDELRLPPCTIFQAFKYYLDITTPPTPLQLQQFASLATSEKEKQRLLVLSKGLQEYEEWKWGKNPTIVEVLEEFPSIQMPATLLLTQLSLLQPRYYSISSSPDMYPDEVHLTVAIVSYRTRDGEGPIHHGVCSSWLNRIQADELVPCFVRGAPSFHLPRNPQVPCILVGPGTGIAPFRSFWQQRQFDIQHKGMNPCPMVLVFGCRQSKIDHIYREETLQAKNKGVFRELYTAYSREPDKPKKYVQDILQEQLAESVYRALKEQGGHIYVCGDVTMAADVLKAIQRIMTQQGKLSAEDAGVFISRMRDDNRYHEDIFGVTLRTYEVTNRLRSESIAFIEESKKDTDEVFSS

Q: Which IC50 (iNOS; Table 1) does the source give for `Nc1ccccn1` [Example 1] here?
A: Its IC50 is 1.4 µM.

Q: And the IC50 (ecNOS; Table 1)?
A: The IC50 was less than 10 µM.

Q: And the IC50 (ncNOS; Table 1)?
A: The IC50 was less than 10 µM.

Q: `COc1ccnc(N)c1` [Example 34, 4-Methoxy-2-aminopyridine] was tested. Which IC50 (iNOS; Table 2) did it give?
A: The IC50 was less than 10 µM.

Q: What about the IC50 (ecNOS; Table 2) of the same molecule?
A: Its IC50 is less than 10 µM.

Q: And the IC50 (ncNOS; Table 2)?
A: The IC50 was less than 10 µM.

Q: For `Cc1cc(N)ncc1Cl` [Example 29, 2-Amino-5-chloro-4-picoline], which IC50 (iNOS; Table 2) is on record?
A: Its IC50 is less than 10 µM.

Q: What about the IC50 (ecNOS; Table 2) of the same molecule?
A: Its IC50 is less than 50 µM.

Q: What about the IC50 (ncNOS; Table 2) of the same molecule?
A: Its IC50 is less than 50 µM.

Q: What does the source list for `Cc1cc(N)nc(C(C)C)c1` [Example 55, 2-Amino-4-methyl-6-(1-methylethyl)pyridine]?
A: IC50 (iNOS; Table 2): < 1 µM; IC50 (ecNOS; Table 2): < 1 µM; IC50 (ncNOS; Table 2): < 10 µM

Q: What does the source list for `C=Cc1c(C)cc(N)nc1C` [Example 37, 4,6-Dimethyl-5-ethenyl-2-aminopyridine]?
A: IC50 (iNOS; Table 2): < 10 µM; IC50 (ecNOS; Table 2): < 10 µM; IC50 (ncNOS; Table 2): < 1 µM

Q: How did the IC50 (iNOS; Table 2) turn out when `Cc1cc(N)nc2c1CCCC2` [Example 63, 2-Amino-4-methyl-5,6,7,8-tetrahydroquinoline] was run?
A: Its IC50 is less than 10 µM.

Q: What about the IC50 (ecNOS; Table 2) of the same molecule?
A: The IC50 was less than 50 µM.

Q: And the IC50 (ncNOS; Table 2)?
A: The IC50 was less than 10 µM.

Q: `CCCCCc1cnc(N)cc1C` [Example 33, 2-Amino-4-methyl-5-pentyl-pyridine] was tested. Which IC50 (iNOS; Table 2) did it give?
A: Its IC50 is less than 50 µM.

Q: What about the IC50 (ecNOS; Table 2) of the same molecule?
A: The IC50 was greater than 50 µM.

Q: What about the IC50 (ncNOS; Table 2) of the same molecule?
A: The IC50 was less than 10 µM.

Q: For `Nc1cccc(Cc2ccccc2)n1` [Example 61, 2-Amino-6-benzylpyridine], which IC50 (iNOS; Table 2) is on record?
A: Its IC50 is less than 50 µM.

Q: And the IC50 (ecNOS; Table 2)?
A: Its IC50 is greater than 50 µM.

Q: What about the IC50 (ncNOS; Table 2) of the same molecule?
A: The IC50 was less than 50 µM.

Q: With `Cc1cc(N)ncc1CN` [Example 45, 2-Amino-5-aminomethyl-4-methylpyridine dihydrochloride] as the molecule, how does the IC50 (iNOS; Table 2) read?
A: Its IC50 is less than 10 µM.

Q: And the IC50 (ecNOS; Table 2)?
A: Its IC50 is less than 10 µM.

Q: What about the IC50 (ncNOS; Table 2) of the same molecule?
A: The IC50 was less than 50 µM.

Q: Which results are given for `Cc1cc(N)nc(CCCCc2ccccc2)c1` [Example 70, 2-Amino-4-methyl-6-(4-phenylbutyl)pyridine]?
A: IC50 (iNOS; Table 2): < 10 µM; IC50 (ecNOS; Table 2): < 10 µM; IC50 (ncNOS; Table 2): < 10 µM

Q: `COc1cccnc1N` [Example 20, 2-Amino-3-methoxypyridine] was tested. Which IC50 (iNOS; Table 2) did it give?
A: The IC50 was greater than 50 µM.

Q: What about the IC50 (ecNOS; Table 2) of the same molecule?
A: The IC50 was less than 50 µM.

Q: What about the IC50 (ncNOS; Table 2) of the same molecule?
A: Its IC50 is less than 50 µM.

Q: With `Nc1ncccc1OCC[C@H](N)C(=O)O` [Example 48, 2-(2-Amino-3-pyridinoxy)-ethyl-(S)-glycine dihydrochloride] as the molecule, how does the IC50 (iNOS; Table 2) read?
A: The IC50 was less than 50 µM.

Q: And the IC50 (ecNOS; Table 2)?
A: The IC50 was less than 10 µM.

Q: And the IC50 (ncNOS; Table 2)?
A: Its IC50 is less than 50 µM.

Q: Which IC50 (iNOS; Table 2) does the source give for `Cc1cnc(N)c(C)c1` [Example 50, 2-Amino-3,5-dimethylpyridine] here?
A: Its IC50 is less than 50 µM.

Q: And the IC50 (ecNOS; Table 2)?
A: The IC50 was less than 10 µM.

Q: And the IC50 (ncNOS; Table 2)?
A: Its IC50 is less than 10 µM.

Q: `CCc1cc(C)cc(N)n1` [Example 54, 2-Amino-6-ethyl-4-methylpyridine] was tested. Which IC50 (iNOS; Table 2) did it give?
A: The IC50 was less than 1 µM.

Q: What about the IC50 (ecNOS; Table 2) of the same molecule?
A: The IC50 was less than 1 µM.

Q: And the IC50 (ncNOS; Table 2)?
A: The IC50 was less than 1 µM.

Q: Which IC50 (iNOS; Table 2) does the source give for `Cc1cnc(N)cc1C` [Example 49, 2-Amino-4,5-dimethylpyridine hydrochloride] here?
A: The IC50 was less than 1 µM.

Q: And the IC50 (ecNOS; Table 2)?
A: Its IC50 is less than 1 µM.

Q: What about the IC50 (ncNOS; Table 2) of the same molecule?
A: The IC50 was less than 1 µM.
